Data reported in paper PMC3156385 (Chemical research in toxicology, 2011).

Key:
P450 1A1 [1] = molecular target: T1, P450 1A1 (Homo sapiens, UniProt P04798); assay: Spectral binding titration with purified recombinant P450 1A1; details: for ΔAmax/Ks / ΔAmax: Reverse Type I binding, 1 µM P450; for ΔAmax: means ± SE
T1 sequence (P04798 1-512): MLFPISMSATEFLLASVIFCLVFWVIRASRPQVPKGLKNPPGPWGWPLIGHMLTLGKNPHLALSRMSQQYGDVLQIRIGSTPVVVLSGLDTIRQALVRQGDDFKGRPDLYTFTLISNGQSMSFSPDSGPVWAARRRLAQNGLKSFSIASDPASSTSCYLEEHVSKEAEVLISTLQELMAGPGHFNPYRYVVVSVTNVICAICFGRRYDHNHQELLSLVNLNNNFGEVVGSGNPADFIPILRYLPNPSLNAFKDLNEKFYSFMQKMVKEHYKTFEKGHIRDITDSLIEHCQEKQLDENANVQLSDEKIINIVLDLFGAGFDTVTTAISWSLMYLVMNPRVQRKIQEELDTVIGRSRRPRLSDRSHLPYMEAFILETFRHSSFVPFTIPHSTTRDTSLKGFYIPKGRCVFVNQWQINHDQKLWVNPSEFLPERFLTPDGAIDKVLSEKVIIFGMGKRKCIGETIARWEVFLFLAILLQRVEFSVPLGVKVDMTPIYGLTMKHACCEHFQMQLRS

rat liver P450 1A1 = molecular target: T2, rat liver P450 1A1 (Rattus norvegicus, UniProt P00185); format: binding; details: 1.5 µM rat P450 1A1 (low-spin); 1.25~80 µM BSC
T2 sequence (P00185 1-524): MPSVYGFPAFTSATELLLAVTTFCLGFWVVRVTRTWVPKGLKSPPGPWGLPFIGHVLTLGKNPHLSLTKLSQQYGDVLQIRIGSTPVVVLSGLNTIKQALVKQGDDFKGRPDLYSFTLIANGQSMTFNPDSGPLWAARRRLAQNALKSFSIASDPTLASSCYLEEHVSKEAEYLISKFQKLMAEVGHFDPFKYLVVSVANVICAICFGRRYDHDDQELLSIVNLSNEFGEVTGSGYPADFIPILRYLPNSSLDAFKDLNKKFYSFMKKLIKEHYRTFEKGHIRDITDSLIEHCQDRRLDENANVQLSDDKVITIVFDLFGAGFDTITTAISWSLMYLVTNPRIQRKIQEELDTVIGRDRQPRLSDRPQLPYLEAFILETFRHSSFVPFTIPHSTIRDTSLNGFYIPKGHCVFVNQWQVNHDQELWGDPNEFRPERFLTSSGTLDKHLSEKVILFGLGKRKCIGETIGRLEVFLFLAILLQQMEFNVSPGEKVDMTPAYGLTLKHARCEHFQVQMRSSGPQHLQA

rat liver P450 1A2 = molecular target: T3, rat liver P450 1A2 (Rattus norvegicus, UniProt P04799); format: binding
T3 sequence (P04799 1-513): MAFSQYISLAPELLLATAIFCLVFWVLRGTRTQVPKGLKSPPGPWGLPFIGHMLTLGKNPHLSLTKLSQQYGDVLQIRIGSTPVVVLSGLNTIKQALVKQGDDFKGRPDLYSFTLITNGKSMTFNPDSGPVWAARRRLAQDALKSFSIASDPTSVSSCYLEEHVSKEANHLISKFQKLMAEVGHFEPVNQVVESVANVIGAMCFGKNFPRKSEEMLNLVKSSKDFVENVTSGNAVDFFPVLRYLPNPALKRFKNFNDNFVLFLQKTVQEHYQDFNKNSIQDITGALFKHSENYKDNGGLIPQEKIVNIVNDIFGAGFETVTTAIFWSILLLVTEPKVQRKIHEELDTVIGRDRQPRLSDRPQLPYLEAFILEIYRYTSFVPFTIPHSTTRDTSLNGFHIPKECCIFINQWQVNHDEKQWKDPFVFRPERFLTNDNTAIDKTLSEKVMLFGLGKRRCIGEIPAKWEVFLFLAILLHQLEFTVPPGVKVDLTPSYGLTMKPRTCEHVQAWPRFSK

rabbit liver P450 1A2 = molecular target: T4, rabbit liver P450 1A2 (Oryctolagus cuniculus, UniProt P00187); format: binding
T4 sequence (P00187 1-516): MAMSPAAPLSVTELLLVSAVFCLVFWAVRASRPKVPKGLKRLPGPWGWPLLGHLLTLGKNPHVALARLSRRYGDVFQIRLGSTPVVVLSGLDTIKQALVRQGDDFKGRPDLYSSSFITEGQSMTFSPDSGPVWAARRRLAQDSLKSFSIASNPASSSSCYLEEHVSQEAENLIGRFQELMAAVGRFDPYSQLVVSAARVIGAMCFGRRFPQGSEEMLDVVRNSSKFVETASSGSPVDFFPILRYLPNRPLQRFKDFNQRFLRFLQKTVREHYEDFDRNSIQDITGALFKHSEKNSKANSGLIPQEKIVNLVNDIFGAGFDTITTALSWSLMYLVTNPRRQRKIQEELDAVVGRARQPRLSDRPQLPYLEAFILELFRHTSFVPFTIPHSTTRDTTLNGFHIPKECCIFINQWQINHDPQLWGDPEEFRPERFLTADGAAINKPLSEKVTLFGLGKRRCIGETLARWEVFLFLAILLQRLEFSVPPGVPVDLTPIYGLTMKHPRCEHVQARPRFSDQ

P450 1A1 [2] = molecular target: T1, P450 1A1; assay: Inhibition of P450 1A1-dependent EROD activity; format: biochemical
P450 1A2 = molecular target: T5, P450 1A2 (Homo sapiens, UniProt P05177); assay: Inhibition of P450 1A2-dependent EROD activity; format: biochemical
T5 sequence (P05177 1-516): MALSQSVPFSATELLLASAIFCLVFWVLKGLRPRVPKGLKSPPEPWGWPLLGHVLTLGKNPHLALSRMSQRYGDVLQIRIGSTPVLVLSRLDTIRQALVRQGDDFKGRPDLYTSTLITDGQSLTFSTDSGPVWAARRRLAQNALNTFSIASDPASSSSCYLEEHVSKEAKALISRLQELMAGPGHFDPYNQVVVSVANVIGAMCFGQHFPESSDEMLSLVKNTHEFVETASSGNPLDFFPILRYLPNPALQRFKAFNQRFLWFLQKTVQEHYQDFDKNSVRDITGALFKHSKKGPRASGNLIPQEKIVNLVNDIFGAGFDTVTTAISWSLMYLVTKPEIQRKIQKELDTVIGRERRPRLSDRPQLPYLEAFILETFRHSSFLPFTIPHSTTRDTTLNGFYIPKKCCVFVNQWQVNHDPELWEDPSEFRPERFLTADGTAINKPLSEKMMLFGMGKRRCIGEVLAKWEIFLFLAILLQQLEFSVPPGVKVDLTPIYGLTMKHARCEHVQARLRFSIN

Q: Which results are given for N#C[Se]Cc1cccc(C[Se]C#N)c1 [m-XSC, 1,3-phenylenebis(methylene)selenocyanate]?
A: Kd (P450 1A1 [1]): 30 ± 4.5 µM; ΔAmax/Ks (P450 1A1 [1]): 0.60 × 10^−3; ΔAmax (P450 1A1 [1]): 18 ± 1.2 × 10^−3

Q: Which spectral changes (rat liver P450 1A1) does the source give for N#C[Se]Cc1ccccc1 [BSC, benzyl selenocyanate] here?
A: did not show any spectral changes

Q: What about the Kd (rat liver P450 1A2) of the same compound?
A: 16 ± 2.4 µM

Q: And the Kd (rabbit liver P450 1A2)?
A: 90 ± 29 µM

Q: And the IC50 (P450 1A1 [2])?
A: 0.45 ± 0.038 µM

Q: What about the IC50 (P450 1A2) of the same compound?
A: 1.3 ± 0.22 µM

Q: What about the Kd (P450 1A1 [1]) of the same compound?
A: 23 ± 4.1 µM

Q: What about the ΔAmax/Ks (P450 1A1 [1]) of the same compound?
A: 0.61 × 10^−3

Q: And the ΔAmax (P450 1A1 [1])?
A: 14 ± 1.0 × 10^−3

Q: What about the “type of binding spectra” value (P450 1A1 [1]; difference spectra) of the same compound?
A: Reverse Type I
